Reference: patent publication US10344019B2 (priority 2010, dated 2019)

Experiments:
Type in all cases: cell-based
[1] = tested on: HCV 2a Rluc cells (NS5A chimeric genotype 2a JFH-1 replicon with genotype 2a J6 strain NS5A gene, M31 present); assay: HCV replicon reporter assay, genotype 2a J6 (M31 present); details: Hepatitis C virus, read-out: 2a J6
Method in brief: (§1)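 Replicon cells stably carrying the listed RLuc-encoding dicistronic replicons were seeded and treated with DMSO serial dilutions of compound (10 mM stocks) diluted into culture medium. After 72 h, cells were lysed and Renilla luciferase activity measured. EC50 was derived by non-linear regression.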

[2] = tested on: HCV 3a RLuc cells (NS5A chimeric genotype 1b Con1 replicon with consensus genotype 3a NS5A gene); assay: microbe, parasite or virus in culture; details: Hepatitis C virus, read-out: 3a, genotype 3a NS5A chimeric replicon
Method in brief: as §1

[3] = tested on: HCV 2a JFH-1 Rluc cells (dicistronic genotype 2a JFH-1 replicon, RLuc reporter); assay: microbe, parasite or virus in culture; details: Hepatitis C virus, genotype 2a JFH-1 RLuc replicon; read-out: 2a JFH
Method in brief: as §1

[4] = tested on: HCV 1b RLuc cells (dicistronic genotype 1b Con1 replicon, RLuc reporter); assay: microbe, parasite or virus in culture; details: Hepatitis C virus, read-out: 1b (nM)
Method in brief: as §1

[5] = tested on: HCV 1a RLuc cells (dicistronic genotype 1a H77 replicon, RLuc reporter); assay: microbe, parasite or virus in culture; details: Hepatitis C virus, genotype 1a H77 RLuc replicon; read-out: 1a
Method in brief: as §1

[6] = tested on: HCV 2b Rluc cells (NS5A chimeric genotype 2a JFH-1 replicon with genotype 2b MD2b-1 NS5A gene, M31 present); assay: microbe, parasite or virus in culture; details: Hepatitis C virus, read-out: 2b
Method in brief: as §1

[7] = tested on: HCV 4a Rluc cells (NS5A chimeric genotype 1b Con1 replicon with genotype 4a NS5A gene); assay: microbe, parasite or virus in culture; details: Hepatitis C virus, read-out: 4a
Method in brief: as §1

SMILES | EC50 [1] | EC50 [2] | EC50 [3] | EC50 [4] | EC50 [5] | EC50 [6] | EC50 [7]
COC(=O)N[C@H](C(=O)N1C[C@@H](COC(F)F)C[C@H]1c1nc2ccc3cc4c(cc3c2[nH]1)OCc1cc(-c2cnc([C@@H]3CC[C@H](C)N3C(=O)[C@@H](NC(=O)OC)C(C)C)[nH]2)ccc1-4)C(C)C [Example 631] | 0.001 to 0.999 nM | > 5 nM | 0.001 to 0.999 nM | 0.006 nM | 0.001 to 0.999 nM | 0.001 to 0.999 nM | –
COC(=O)N[C@H](C(=O)N1CCC[C@H]1c1nc2ccc3cc(-c4ccc5c(ccc6nc([C@@H]7C[C@H](SC)CN7C(=O)[C@H](NC(=O)OC)c7ccccc7)[nH]c65)c4)ccc3c2[nH]1)C(C)C [Example 535] | 0.001 to 0.999 nM | – | 0.001 to 0.999 nM | 0.022 nM | 0.001 to 0.999 nM | 0.001 to 0.999 nM | 0.001 to 0.99 nM
COC(=O)N[C@H](C(=O)N1CCC[C@H]1c1ncc(-c2cc3c4c(c2)OCc2cc(-c5cnc([C@@H]6CCCN6C(=O)[C@H](NC(=O)c6ccccn6)c6ccccc6)[nH]5)cc(c2-4)OC3)[nH]1)C(C)C [Example 522] | > 44 nM | – | 0.001 to 0.999 nM | 0.023 nM | 0.001 to 0.999 nM | 0.001 to 0.999 nM | 0.001 to 0.99 nM
CC[C@H](C)[C@H](NC(=O)OC)C(=O)N1C[C@@H](C)C[C@H]1c1ncc(-c2ccc3c(c2)COc2cc4c(ccc5nc([C@@H]6C[C@H](COC)CN6C(=O)[C@@H](NC(=O)OC)[C@@H](C)OC)[nH]c54)cc2-3)[nH]1 [Example 641] | 0.001 to 0.999 nM | – | 0.001 to 0.999 nM | 0.03 nM | 0.001 to 0.999 nM | 0.001 to 0.999 nM | –
COC[C@H]1C[C@@H](c2ncc(-c3ccc4c(c3)COc3cc5c(ccc6nc([C@@H]7C[C@H](COC(F)F)CN7C(=O)[C@@H](NC(=O)OC)C(C)C)[nH]c65)cc3-4)[nH]2)N(C(=O)[C@@H](NC(=O)OC)C(C)C)C1 [Example 634] | 0.001 to 0.999 nM | – | 0.001 to 0.999 nM | 0.015 nM | 0.001 to 0.999 nM | 0.001 to 0.999 nM | –
COC(=O)N[C@H](C(=O)N1CCC[C@H]1c1nc2ccc3cc(-c4ccc5c(ccc6nc([C@@H]7C[C@H](COC(F)F)CN7C(=O)[C@H](NC(=O)OC)c7ccccc7)[nH]c65)c4)ccc3c2[nH]1)C(C)C [Example 528] | 0.001 to 0.999 nM | – | 0.001 to 0.999 nM | 0.01 nM | 0.001 to 0.999 nM | 0.001 to 0.999 nM | 0.001 to 0.99 nM
CC[C@H](C)[C@H](NC(=O)OC)C(=O)N1[C@@H]2C[C@@H]2C[C@H]1c1nc2ccc3cc(-c4ccc5c(ccc6nc([C@@H]7C[C@H](COC)CN7C(=O)[C@H](NC(=O)C7CC7)c7ccccc7)[nH]c65)c4)ccc3c2[nH]1 [Example 531] | 0.001 to 0.999 nM | – | 0.001 to 0.999 nM | 0.018 nM | 0.001 to 0.999 nM | 0.001 to 0.999 nM | 0.001 to 0.99 nM
CC[C@H](C)[C@H](NC(=O)OC)C(=O)N1C[C@@H](C)C[C@H]1c1ncc(-c2ccc3c(c2)COc2cc4c(ccc5nc([C@@H]6C[C@H](COC)CN6C(=O)[C@@H](NC(=O)OC)C(C)C)[nH]c54)cc2-3)[nH]1 [Example 642] | 0.001 to 0.999 nM | – | 0.001 to 0.999 nM | 0.014 nM | 0.001 to 0.999 nM | 0.001 to 0.999 nM | –
CCC(C)[C@H](NC(=O)OC)C(=O)N1C[C@@H](COC)C[C@H]1c1nc2ccc3cc4c(cc3c2[nH]1)OCc1cc(-c2cnc([C@@H]3C[C@H](C)CN3C(=O)[C@@H](NC(=O)OC)[C@@H](C)CC)[nH]2)ccc1-4 (some centres unmarked) [Example 640] | 0.001 to 0.999 nM | – | 0.001 to 0.999 nM | 0.015 nM | 0.001 to 0.999 nM | 0.001 to 0.999 nM | –
COC[C@H]1C[C@@H](c2nc3ccc4cc(-c5ccc6c(ccc7nc([C@@H]8C[C@H](C)CN8C(=O)[C@@H](NC(=O)OC)C(C)C)[nH]c76)c5)ccc4c3[nH]2)N(C(=O)[C@H](NC(=O)C2CCC2)c2ccccc2)C1 [Example 541] | 0.001 to 0.999 nM | – | 0.001 to 0.999 nM | 0.034 nM | 0.001 to 0.999 nM | 0.001 to 0.999 nM | 0.001 to 0.99 nM
COC[C@H]1C[C@@H](c2nc3ccc4cc(-c5ccc6c(ccc7nc([C@@H]8C[C@H]9C[C@H]9N8C(=O)[C@@H](NC(=O)OC)C(C)(C)C)[nH]c76)c5)ccc4c3[nH]2)N(C(=O)[C@H](NC(=O)OC)c2ccccc2)C1 [Example 530] | 0.001 to 0.999 nM | – | 0.001 to 0.999 nM | 0.011 nM | 0.001 to 0.999 nM | 0.001 to 0.999 nM | 0.001 to 0.99 nM
COC[C@H]1C[C@@H](c2nc3ccc4cc(-c5ccc6c(ccc7nc([C@@H]8CCCN8C(=O)[C@@H](NC(=O)OC)C(C)C)[nH]c76)c5)ccc4c3[nH]2)N(C(=O)[C@H](NC(=O)C2CCC2)c2ccccc2)C1 [Example 537] | 0.001 to 0.999 nM | – | 0.001 to 0.999 nM | 0.014 nM | 0.001 to 0.999 nM | 0.001 to 0.999 nM | 0.001 to 0.99 nM
